Columns and labels:
[1] = tested on: Puccinia recondita f. Sp. Tritici; experiment: Fungicidal activity, wheat leaf disc preventative (brown rust); assay type: in vivo; conditions: foliar, 200 ppm in the applied formulation, wheat leaf segments cv. Kanzler, compared to untreated control, 7 to 9 days after application, read-out: disease control
Outline: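 Preventative leaf-segment test: spray application of diluted formulated compound on wheat cv. Kanzler, spore inoculation after 1 day. Percent control relative to untreated segments rated 7 to 9 days post-application, with incubation at 19° C, 75% relative humidity, 12 h photoperiod.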

[2] = tested on: Glomerella lacenarium (Colletotrichum lacenarium); experiment: Fungicidal activity, liquid culture, cucumber preventative (anthracnose); assay type: cell-based; conditions: 20 ppm in the applied formulation, liquid culture in PDB, inhibition of growth measured photometrically 3 to 4 days after application, compared to untreated control, read-out: disease control
Outline: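 Spore-based broth assay: conidia mixed into PDB meet compound from a DMSO solution in 96-well format, incubate at 24° C., then inhibition of growth is determined by photometry 3–4 days later relative to the untreated check.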

[3] = tested on: Puccinia recondita f. Sp. Tritici; experiment: Fungicidal activity, wheat leaf disc curative (brown rust); assay type: in vivo; conditions: foliar, 200 ppm in the applied formulation, wheat leaf segments cv. Kanzler, curative (applied 1 day after inoculation), compared to untreated control, 6 to 8 days after application, read-out: disease control
Protocol: Leaf disks or leaf segments of various plant species are cut from plants grown in a greenhouse. The cut leaf disks or segments are placed in multiwell plates (24-well format) onto water agar. The leaf disks are sprayed with a test solution before (preventative) or after (curative) inoculation. Compounds to be tested are prepared as DMSO solutions (max. 10 mg/ml) which are diluted to the appropriate concentration with 0.025% Tween20 just before spraying. The inoculated leaf disks or segments are incubated under defined conditions (temperature, relative humidity, light, etc.) according to the respective test system. A single evaluation of disease level is carried out 3 to 14 days after inoculation, depending on the pathosystem. Percent disease control relative to the untreated check leaf disks or segments is then calculated.
Wheat leaf segments cv. Kanzler are placed on agar in multiwell plates (24-well format). The leaf segments are then inoculated with a spore suspension of the fungus. Plates were stored in darkness at 19° C. and 75% relative humidity. The formulated test compound diluted in water was applied 1 day after inoculation. The leaf segments were incubated at 19° C. and 75% relative humidity under a light regime of 12 hours light/12 hours darkness in a climate cabinet and the activity of a compound was assessed as percent disease control compared to untreated when an appropriate level of disease damage appears in untreated check leaf segments (6 to 8 days after application).
The following compounds at 200 ppm in the applied formulation give at least 80% disease control in this test when compared to untreated control leaf disks under the same conditions, which show extensive disease development.

CCN(Cc1ccc(-c2noc(C(F)(F)F)n2)s1)C(=O)C(=O)c1ccco1 [Compound 6.46, N-ethyl-2-(2-furyl)-2-oxo-N-[[5-[5-(trifluoromethyl)-1,2,4-oxadiazol-3-yl]-2-thienyl]methyl]acetamide]
≥ 80%: pest or weed control at 200 ppm [1] | inhibition of growth at 20 ppm [2] | pest or weed control at 200 ppm [3]

CN(Cc1ccc(-c2noc(C(F)(F)F)n2)s1)C(=O)C(=O)C(C)(C)C [Compound 6.48, N,3,3-trimethyl-2-oxo-N-[[5-[5-(trifluoromethyl)-1,2,4-oxadiazol-3-yl]-2-thienyl]methyl]butanamide]
≥ 80%: pest or weed control at 200 ppm [1] | inhibition of growth at 20 ppm [2] | pest or weed control at 200 ppm [3]

CC(C)N(Cc1ccc(-c2noc(C(F)(F)F)n2)s1)C(=O)CC#N [Compound 4.49, 2-cyano-N-isopropyl-N-[[5-[5-(trifluoromethyl)-1,2,4-oxadiazol-3-yl]-2-thienyl]methyl]acetamide]
≥ 80%: pest or weed control at 200 ppm [1] | inhibition of growth at 20 ppm [2] | pest or weed control at 200 ppm [3]

CCN(Cc1ccc(-c2noc(C(F)(F)F)n2)s1)C(=O)N1CCCO1 [Compound 5.52, N-ethyl-N-[[5-[5-(trifluoromethyl)-1,2,4-oxadiazol-3-yl]-2-thienyl]methyl]isoxazolidine-2-carboxamide]
≥ 80%: pest or weed control at 200 ppm [1] | inhibition of growth at 20 ppm [2] | pest or weed control at 200 ppm [3]

CCN(Cc1ccc(-c2noc(C(F)(F)F)n2)s1)C(=O)CNC(C)=O [Compound 4.23, 2-acetamido-N-ethyl-N-[[5-[5-(trifluoromethyl)-1,2,4-oxadiazol-3-yl]-2-thienyl]methyl]acetamide]
≥ 80%: pest or weed control at 200 ppm [1] | inhibition of growth at 20 ppm [2] | pest or weed control at 200 ppm [3]

COCC(=O)N(Cc1ccc(-c2noc(C(F)(F)F)n2)s1)OCC(F)F [Compound 4.62, N-(2,2-difluoroethoxy)-2-methoxy-N-[[5-[5-(trifluoromethyl)-1,2,4-oxadiazol-3-yl]-2-thienyl]methyl]acetamide]
≥ 80%: pest or weed control at 200 ppm [1] | inhibition of growth at 20 ppm [2] | pest or weed control at 200 ppm [3]

CN(Cc1ccc(-c2noc(C(F)(F)F)n2)s1)C(=O)C1(C)COC1 [Compound 5.23, N,3-dimethyl-N-[[5-[5-(trifluoromethyl)-1,2,4-oxadiazol-3-yl]-2-thienyl]methyl]oxetane-3-carboxamide]
≥ 80%: pest or weed control at 200 ppm [1] | inhibition of growth at 20 ppm [2] | pest or weed control at 200 ppm [3]

O=C(Cc1ccccc1)C(=O)N(Cc1ccc(-c2noc(C(F)(F)F)n2)s1)C1CC1 [Compound 6.57, N-cyclopropyl-2-oxo-3-phenyl-N-[[5-[5-(trifluoromethyl)-1,2,4-oxadiazol-3-yl]-2-thienyl]methyl]propanamide]
≥ 80%: pest or weed control at 200 ppm [1] | inhibition of growth at 20 ppm [2] | pest or weed control at 200 ppm [3]

CC(C)N(Cc1ccc(-c2noc(C(F)(F)F)n2)s1)C(=O)C(N)=O [Compound 6.9, N′-isopropyl-N′-[[5-[5-(trifluoromethyl)-1,2,4-oxadiazol-3-yl]-2-thienyl]methyl]oxamide]
≥ 80%: pest or weed control at 200 ppm [1] | inhibition of growth at 20 ppm [2] | pest or weed control at 200 ppm [3]

CCC(=O)C(=O)N(C)Cc1ccc(-c2noc(C(F)(F)F)n2)s1 [Compound 6.49, N-methyl-2-oxo-N-[[5-[5-(trifluoromethyl)-1,2,4-oxadiazol-3-yl]-2-thienyl]methyl]butanamide]
≥ 80%: pest or weed control at 200 ppm [1] | inhibition of growth at 20 ppm [2] | pest or weed control at 200 ppm [3]

CC(C)N(Cc1ccc(-c2noc(C(F)(F)F)n2)s1)C(=O)C1CCOC1 (stereo not drawn) [Compound 5.28, N-isopropyl-N-[[5-[5-(trifluoromethyl)-1,2,4-oxadiazol-3-yl]-2-thienyl]methyl]tetrahydrofuran-3-carboxamide]
≥ 80%: pest or weed control at 200 ppm [1] | inhibition of growth at 20 ppm [2] | pest or weed control at 200 ppm [3]

CN(Cc1ccc(-c2noc(C(F)(F)F)n2)s1)S(C)(=O)=O [Compound 6.27, N-methyl-N-[[5-[5-(trifluoromethyl)-1,2,4-oxadiazol-3-yl]-2-thienyl]methyl]methanesulfonamide]
≥ 80%: pest or weed control at 200 ppm [1] | inhibition of growth at 20 ppm [2] | pest or weed control at 200 ppm [3]

CCN(Cc1ccc(-c2noc(C(F)(F)F)n2)s1)C(=O)C(C)OC (stereo not drawn) [Compound 4.6, N-ethyl-2-methoxy-N-[[5-[5-(trifluoromethyl)-1,2,4-oxadiazol-3-yl]-2-thienyl]methyl]propanamide]
≥ 80%: pest or weed control at 200 ppm [1] | inhibition of growth at 20 ppm [2] | pest or weed control at 200 ppm [3]

CCCN(CC1CC1)C(=O)N(C)Cc1ccc(-c2noc(C(F)(F)F)n2)s1 [Compound 5.57, 1-(cyclopropylmethyl)-3-methyl-1-propyl-3-[[5-(5-(trifluoromethyl)-1,2,4-oxadiazol-3-yl]-2-thienyl]methyl]urea]
≥ 80%: pest or weed control at 200 ppm [1] | inhibition of growth at 20 ppm [2] | pest or weed control at 200 ppm [3]

CC(C)N(Cc1ccc(-c2noc(C(F)(F)F)n2)s1)C(=O)CC(F)(F)F [Compound 4.50, 3,3,3-trifluoro-N-isopropyl-N-[[5-[5-(trifluoromethyl)-1,2,4-oxadiazol-3-yl]-2-thienyl]methyl]propanamide]
≥ 80%: pest or weed control at 200 ppm [1] | inhibition of growth at 20 ppm [2] | pest or weed control at 200 ppm [3]

CCCC(=O)N(C)Cc1ccc(-c2noc(C(F)(F)F)n2)s1 [Compound 4.34, N-methyl-N-[[5-[5-(trifluoromethyl)-1,2,4-oxadiazol-3-yl]-2-thienyl]methyl]butanamide]
≥ 80%: pest or weed control at 200 ppm [1] | inhibition of growth at 20 ppm [2] | pest or weed control at 200 ppm [3]

CC(=O)N(C)Cc1ccc(-c2noc(C(F)(F)F)n2)s1 [Compound 4.41, N-methyl-N-[[5-[5-(trifluoromethyl)-1,2,4-oxadiazol-3-yl]-2-thienyl]methyl]acetamide]
≥ 80%: pest or weed control at 200 ppm [1] | inhibition of growth at 20 ppm [2] | pest or weed control at 200 ppm [3]

CC(C)CC(=O)C(=O)N(C)Cc1ccc(-c2noc(C(F)(F)F)n2)s1 [Compound 6.51, N,4-dimethyl-2-oxo-N-[[5-[5-(trifluoromethyl)-1,2,4-oxadiazol-3-yl]-2-thienyl]methyl]pentanamide]
≥ 80%: pest or weed control at 200 ppm [1] | inhibition of growth at 20 ppm [2] | pest or weed control at 200 ppm [3]

O=C(N1CCCO1)N(Cc1ccc(-c2noc(C(F)(F)F)n2)s1)C1CC1 [Compound 5.61, N-cyclopropyl-N-[[5-[5-(trifluoromethyl)-1,2,4-oxadiazol-3-yl]-2-thienyl]methyl]isoxazolidine-2-carboxamide]
≥ 80%: pest or weed control at 200 ppm [1] | inhibition of growth at 20 ppm [2] | pest or weed control at 200 ppm [3]

COCC(=O)N(Cc1ccc(-c2noc(C(F)(F)F)n2)s1)C(C)C [Compound 4.42, N-isopropyl-2-methoxy-N-[[5-[5-(trifluoromethyl)-1,2,4-oxadiazol-3-yl]-2-thienyl]methyl]acetamide]
≥ 80%: pest or weed control at 200 ppm [1] | inhibition of growth at 20 ppm [2] | pest or weed control at 200 ppm [3]

O=C(N1CCCO1)N(Cc1ccc(-c2noc(C(F)(F)F)n2)s1)OCC(F)F [Compound 5.64, N-(2,2-difluoroethoxy)-N-[[5-[5-(trifluoromethyl)-1,2,4-oxadiazol-3-yl]-2-thienyl]methyl]isoxazolidine-2-carboxamide]
≥ 80%: pest or weed control at 200 ppm [1] | inhibition of growth at 20 ppm [2] | pest or weed control at 200 ppm [3]

CCN(Cc1ccc(-c2noc(C(F)(F)F)n2)s1)C(=O)CC1CC1 [Compound 5.9, 2-cyclopropyl-N-ethyl-N-[[5-[5-(trifluoromethyl)-1,2,4-oxadiazol-3-yl]-2-thienyl]methyl]acetamide]
≥ 80%: pest or weed control at 200 ppm [1] | inhibition of growth at 20 ppm [2] | pest or weed control at 200 ppm [3]

CCN(Cc1ccc(-c2noc(C(F)(F)F)n2)s1)C(=O)C(=O)Cc1ccccc1 [Compound 6.43, N-ethyl-2-oxo-3-phenyl-N-[[5-[5-(trifluoromethyl)-1,2,4-oxadiazol-3-yl]-2-thienyl]methyl]propanamide]
≥ 80%: pest or weed control at 200 ppm [1] | inhibition of growth at 20 ppm [2] | pest or weed control at 200 ppm [3]

CCN(Cc1ccc(-c2noc(C(F)(F)F)n2)s1)C(=O)CC#N [Compound 4.29, 2-cyano-N-ethyl-N-[[5-[5-(trifluoromethyl)-1,2,4-oxadiazol-3-yl]-2-thienyl]methyl]acetamide]
≥ 80%: pest or weed control at 200 ppm [1] | inhibition of growth at 20 ppm [2] | pest or weed control at 200 ppm [3]

Source: patent publication US20200187502A1, “MICROBIOCIDAL OXADIAZOLE DERIVATIVES” (SYNGENTA PARTICIPATIONS AG, priority 2017, published 2020)
